Assay results from US8481524B2, “c-MET protein kinase inhibitors” (Vertex Pharmaceuticals Incorporated, priority 2007, dated 2013).
“Also recorded” adds a separate entry of the source.

System: c-Met in Snu5 gastric carcinoma cells
Experiment: Inhibition of c-Met activity in Snu5 gastric carcinoma cells (Snu5-AP1-Luc-Pest luciferase signal)
Format: cell-based, human
Details: for IC50: Homo sapiens, SNU-5, Snu5-AP1-Luc-Pest cells, 6 hours, Steady Glo luminescence; for activity compared with corresponding analog wherein R5 is hydrogen: Snu5 gastric carcinoma cell assay, comparison of IC50 values
From the text: Compounds of the invention were also screened for their ability to inhibit the Luciferase-induced signal in an engineered Snu5 cell line. Snu5 [obtained from American Type Culture Collection (Catalog number CRL-5973)] is a human gastric carcinoma known to overexpress c-Met, which is constitutively active. The cell line was transduced with the retrovirus, pCLPCX, which contains a genetic construct consisting of 6×AP1 promoter response elements and a luciferase gene having a C-terminal PEST sequence (proteolytic signal from mouse ornithine decarboxylase, which reduces the half-life of the luciferase). The constitutively active cMet activates cellular pathways (principally MAP kinase), resulting in AP-1-induced transcription of luciferase-PEST and translation into the final product, the activity of which is quantifiable as a chemiluminescent readout upon the addition of luciferin (Steady-Glo from Promega.). Residual luminescence is strongly correlated to the inhibition of c-Met. A stable cell line was obtained by selecting the new cell line (Snu5-AP1-Luc-Pest) with puromycin. The cells were grown in complete media [Iscove's media (Invitrogen) containing 10% fetal bovine serum (FBS, Hyclone) and penicillin/gentamycin (Invitrogen)]. Compounds of the invention were dissolved in DMSO to make 10 mM initial stock solutions. Serial dilutions in DMSO were then made and transferred to complete medium to make a 10× solution. The Snu5-AP1-Luc-Pest cells were counted and diluted to 200,000-cells/mL solution. The cells (90 μL) were added to each well in a 96-well black with clear bottom plate (Costar). Then 10 μL of the 10× compound solution was added to the cells in triplicate. The plates were incubated in a 37° C./5% CO2 incubator. After 6 hours, 50 μL of the Steady Glo reagent (Promega) was added to each well and placed on a plate shaker for 5 minutes to ensure that the cells were completely lysed. The plate was read on a 1450 Microbeta Liquid Scintillation and Luminescence Counter (Perkin-Elmer). The IC50s were calculated using a 4-parameter fit using the graphing software Prism (GraphPad).

Compound	IC50 [nM]	activity compared with corresponding analog wherein R5 is hydrogen
COc1cc(F)c(-n2nnnc2-c2cc(-c3cc4c(s3)CCNCC4)cnc2N)c(F)c1 [Compound 54]	100 to 1000	–
COc1ccc(-n2nnnc2-c2cc(-c3cc4c(s3)CCNC(C)C4)cnc2N)c(F)c1F (centres unmarked) [Compound 27]	≤ 100	more active
COc1ccc(-n2nnnc2-c2cc(-c3cnn(C4CC5CCC(C4)N5)c3)cnc2N)c(F)c1F (centres unmarked) [Compound 17]	–	more active
Cc1ccc(-n2nnnc2-c2cc(-c3cc4c(s3)CCNCC4)cnc2N)c(F)c1 [Compound 42]	100 to 1000	–
CCC1Cc2sc(-c3cnc(N)c(-c4nnnn4-c4ccc(OC)c(F)c4F)c3)cc2CCN1 (centres unmarked) [Compound 19]	≤ 100	more active
Cc1cc(-c2cnc(N)c(-c3nnnn3-c3ccc(C)c(F)c3F)c2)sc1C1CCNCC1 [Compound 24]	≤ 100	more active
CCCOc1ccc(-n2nnnc2-c2cc(-c3cc4c(s3)CCNCC4)cnc2N)c(F)c1F [Compound 23]	≤ 100	–
Cc1ccc(-n2nnnc2-c2cc(-c3cc4c(s3)CCNC(C)C4)cnc2N)c(F)c1F (centres unmarked) [Compound 28]	≤ 100	more active
Cc1cc(C2CCNCC2)sc1-c1cnc(N)c(-c2nnnn2-c2ccc(C)c(F)c2F)c1 [Compound 31]	100 to 1000	more active; also recorded: the unsubstituted compound has a lower IC50 value
COc1ccc(-n2nnnc2-c2cc(-c3cc4c(s3)CCNCC4)cnc2N)c(F)c1F [Compound 15]	≤ 100	more active
COc1ccc(-n2nnnc2-c2cc(-c3cc4c(s3)CCCNC4)cnc2N)c(F)c1F [Compound 21]	100 to 1000	more active
Cc1ccc(-n2nnnc2-c2cc(-c3cc4c(s3)CCNCC4)cnc2N)c(F)c1F [Compound 13, 3-(1-(2,3-Difluoro-4-methylphenyl)-1H-tetrazol-5-yl)-5-(5,6,7,8-tetrahydro-4H-thieno[2,3-d]azepin-2-yl)pyridin-2-amine]	≤ 100	more active
Cc1cc(-c2cnc(N)c(-c3nnnn3-c3ccc(C)c(F)c3F)c2)sc1C1CCCNC1 (centres unmarked) [Compound 67]	≤ 100	–
Cc1ccc(-n2nnnc2-c2cc(-c3cc4c(s3)CCNCC4)cnc2N)c(Cl)c1 [Compound 39]	100 to 1000	–
COc1ccc(-n2nnnc2-c2cc(-c3cnn(C4CC5CCC(C4)N5)c3)cnc2N)c(F)c1F (centres unmarked) [Compound 16]	≤ 100	more active
COc1ccc(-n2nnnc2-c2cc(-c3sc(C4CCNCC4)cc3C)cnc2N)c(F)c1F [Compound 32]	≤ 100	more active
Cc1ccc(-n2nnnc2-c2cc(-c3cn(C4CCCNCC4)nc3C)cnc2N)c(F)c1F (centres unmarked) [Compound 46]	≤ 100	–
Cc1ccc(-n2nnnc2-c2cc(-c3cn(C4CCNCC4)nc3C(F)(F)F)cnc2N)c(F)c1F [Compound 47]	100 to 1000	–
Cc1ccc(-n2nnnc2-c2cc(-c3cc4c(s3)CCNCC4(C)C)cnc2N)c(F)c1F [Compound 30]	≤ 100	more active
COc1ccc(-n2nnnc2-c2cc(-c3cc(C)c(C4CCNCC4)s3)cnc2N)c(F)c1F [Compound 22, 3-(1-(2,3-Difluoro-4-methoxyphenyl)-1H-tetrazol-5-yl)-5-(4-methyl-5-(piperidin-4-yl)thiophen-2-yl)pyridin-2-amine]	≤ 100	more active
COc1ccc(-n2nnnc2-c2cc(-c3cc(C)c(C4CCCNC4)s3)cnc2N)c(F)c1F (centres unmarked) [Compound 66]	≤ 100	–
COc1ccc(-n2nnnc2-c2cc(-c3cc4c(s3)CCNCC4C)cnc2N)c(F)c1F (centres unmarked) [Compound 14]	≤ 100	more active
COc1ccc(-n2nnnc2-c2cc(-c3cc4c(s3)CCNCC4)cnc2N)c(F)c1 [Compound 51]	100 to 1000	–
COc1ccc(-n2nnnc2-c2cc(-c3cc4c(s3)CNCCC4)cnc2N)c(F)c1F [Compound 20]	100 to 1000	–
Cc1ccc(-n2nnnc2-c2cc(-c3cnn(C4C[C@H]5CNC[C@H]5C4)c3)cnc2N)c(F)c1F (some centres unmarked) [Compound 48]	100 to 1000	–

Further lines, with some results ahead:

IC50 [nM]	Compound	activity compared with corresponding analog wherein R5 is hydrogen
≤ 100	CC(C)Oc1ccc(-n2nnnc2-c2cc(-c3cnn(C4CCNCC4)c3)cnc2N)c(F)c1F [Compound 26]	–
100 to 1000	COCc1ccc(-n2nnnc2-c2cc(-c3cnn(C4CCNCC4)c3)cnc2N)c(F)c1F [Compound 65]	–
≤ 100	Cc1ccc(-n2nnnc2-c2cc(-c3cnn([C@H]4CCCNC4)c3)cnc2N)c(F)c1F [Compound 5]	more active
100 to 1000	COc1ccc(-n2nnnc2-c2cc(-c3cnn(C4CCNCC4)c3)cnc2N)c(F)c1 [Compound 50]	–
≤ 100	COc1ccc(-n2nnnc2-c2cc(-c3cnn([C@H]4CCCNC4)c3)cnc2N)c(F)c1F [Compound 10]	more active
≤ 100	CCOc1ccc(-n2nnnc2-c2cc(-c3cnn(C4CCNCC4)c3)cnc2N)c(F)c1F [Compound 25]	–
100 to 1000	Cc1ccc(-n2nnnc2-c2cc(-c3cnn([C@H]4CCNC4)c3)cnc2N)c(F)c1F [Compound 7]	more active
≤ 100	COc1cc(F)c(-n2nnnc2-c2cc(-c3cnn(C4CCNCC4)c3)cnc2N)c(F)c1 [Compound 37]	–
> 1000	Cc1ccc(-n2nnnc2-c2cc(-c3cnn(C4CCNCC4)c3)cnc2N)cc1Cl [Compound 40]	–
≤ 100	COc1ccc(-n2nnnc2-c2cc(-c3cn(C4CCNCC4)nc3C)cnc2N)c(F)c1F [Compound 18]	more active
≤ 100	COc1ccc(-n2nnnc2-c2cc(-c3cnn([C@@H]4CCNC4)c3)cnc2N)c(F)c1F [Compound 4]	more active
100 to 1000	COc1ccc(-n2nnnc2-c2cc(-c3cnn(C4CCCNCC4)c3)cnc2N)c(F)c1F (centres unmarked) [Compound 9]	–
100 to 1000	COc1ccc(-n2nnnc2-c2cc(-c3cnn(C4CCNCC4)c3)cnc2N)c(F)c1F [Compound 12, 3-(1-(2,3-difluoro-4-methoxyphenyl)-1H-tetrazol-5-yl)-5-(1-(piperidin-4-yl)-1H-pyrazol-4-yl)pyridin-2-amine]	more active
100 to 1000	COCCOc1ccc(-n2nnnc2-c2cc(-c3cnn(C4CCNCC4)c3)cnc2N)c(F)c1F [Compound 35]	–
100 to 1000	Cc1ccc(-n2nnnc2-c2cc(-c3cnn(C4CCNCC4)c3)cnc2N)c(Cl)c1 [Compound 38]	–
≤ 100	Cc1ccc(-n2nnnc2-c2cc(-c3cnn(C4CCCNCC4)c3)cnc2N)c(F)c1F (centres unmarked) [Compound 3]	more active
≤ 100	COc1ccc(-n2nnnc2-c2cc(-c3cnn([C@@H]4CCCNC4)c3)cnc2N)c(F)c1F [Compound 8, 3-(1-(2,3-Difluoro-4-methoxyphenyl)-1H-tetrazol-5-yl)-5-(1-((R)-piperidin-3-yl)-1H-pyrazol-4-yl)pyridin-2-amine]	more active
100 to 1000	Cc1ccc(-n2nnnc2-c2cc(-c3cnn(C4CCNCC4)c3)cnc2N)c(F)c1F [Compound 11, 3-(1-(2,3-Difluoro-4-methylphenyl)-1H-tetrazol-5-yl)-5-(1-(piperidin-4-yl)-1H-pyrazol-4-yl)pyridin-2-amine]	more active
≤ 100	Cc1ccc(-n2nnnc2-c2cc(-c3cnn([C@@H]4CCCNC4)c3)cnc2N)c(F)c1F [Compound 2]	more active
≤ 100	Cc1ccc(-n2nnnc2-c2cc(-c3cn(C4CCNCC4)nc3C)cnc2N)c(F)c1F [Compound 45]	–
≤ 100	COc1ccc(-n2nnnc2-c2cc(-c3cn(C4CCNCC4)nc3C(F)(F)F)cnc2N)c(F)c1F [Compound 36]	more active
≤ 100	CC(C)Oc1ccc(-n2nnnc2-c2cc(-c3cc4c(s3)CCNCC4)cnc2N)c(F)c1F [Compound 33]	–
100 to 1000	Cc1ccc(-n2nnnc2-c2cc(-c3cnn(C4CCNCC4)c3)cnc2N)cc1F [Compound 43]	–
100 to 1000	Cc1ccc(-n2nnnc2-c2cc(-c3cnn(C4CCNCC4)c3)cnc2N)c(F)c1 [Compound 41]	–
≤ 100	COc1ccc(-n2nnnc2-c2cc(-c3cn(C4CCCNCC4)nc3C)cnc2N)c(F)c1F (centres unmarked) [Compound 44]	–
